According to article PMC6327030 (Nature Communications, 2019):
Read-outs that look alike come from different tables or passages of the source.

What was measured:
[1] = target: T1, baculosome-derived full-length SQLE (Homo sapiens, UniProt Q14534); assay: Biochemistry assay of SQLE activity with SQLE baculosomes (LC-MS/MS detection of 2,3-oxidosqualene); format: biochemical; details: for mechanism of inhibition with respect to squalene substrate: squalene varied from 50 to 0.39 μM, fixed inhibitor concentrations
T1 construct: we overexpressed full-length SQLE in Sf9 cells using a baculovirus system; made in house; host or cells: Sf9 insect cells (baculovirus), membrane preparation (baculosomes)
T1 sequence (Q14534 whole entry): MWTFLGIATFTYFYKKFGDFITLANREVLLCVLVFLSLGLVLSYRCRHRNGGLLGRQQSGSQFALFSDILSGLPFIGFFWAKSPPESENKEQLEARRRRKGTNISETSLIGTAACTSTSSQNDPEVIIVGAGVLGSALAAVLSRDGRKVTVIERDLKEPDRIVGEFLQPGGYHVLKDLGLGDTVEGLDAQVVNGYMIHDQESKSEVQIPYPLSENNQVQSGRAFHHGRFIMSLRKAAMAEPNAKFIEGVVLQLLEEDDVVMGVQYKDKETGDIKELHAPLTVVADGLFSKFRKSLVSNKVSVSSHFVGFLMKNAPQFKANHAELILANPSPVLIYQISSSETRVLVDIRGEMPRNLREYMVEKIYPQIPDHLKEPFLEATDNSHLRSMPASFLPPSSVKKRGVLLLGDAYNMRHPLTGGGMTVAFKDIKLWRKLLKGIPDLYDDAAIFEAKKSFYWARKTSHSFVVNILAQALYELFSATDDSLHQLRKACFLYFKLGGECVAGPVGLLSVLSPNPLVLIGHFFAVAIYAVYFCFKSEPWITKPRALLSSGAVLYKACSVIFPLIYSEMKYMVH
Experimental: pFastBac1-SQLE was transformed into DH10Bac E. coli (Thermo Fisher) for transposition into bacmid, and positive clones were selected on a blue/white LB agar plate. Recombinant bacmid as isolated from positive clones with the PureLink Hipure Plasmid DNA miniprep kit (Thermo Fisher) and transfected into Sf9 cells (Thermo Fisher) to generate recombinant virus stocks, which were amplified further before Sf9 infection at a multiplicity of infection of two. Infected cells were harvested 72 h post infection and resuspended in phosphate buffered saline, then disrupted by sonication. The cell lysate was clarified by centrifugation at 1500× g for 10 min, the supernatant was further centrifuged at 10,000× g for another 10 min to remove cell debris; and then the supernatant was harvested and centrifuged at 100,000× g for 90 min. The pellet of SQLE baculosomes was collected and homogenized in the buffer (50 mM potassium phosphate, 20% Glycerol, pH7.0) by micro-electric homogenizer (IKA Works, Germany). The protein concentration was determined by the Bradford method. SQLE baculosomes were aliquoted and stored at −80 ℃. The abundance of SQLE in the baculosomes compared to other subcellular fractions was evaluated by immunoblotting against the N-terminal his-tag. Y195A, and Y195F mutant baculosomes were prepared as described above from Sf9 cells infected with engineered viruses.
All biochemistry assay buffers contained 100 mM Tris, 0.1% triton X-100, 1 mM EDTA, 0.1 mM FAD and 1 mM NADPH. […] The reaction was quenched by adding 100 μL of 10 mM ammonium acetate buffer, followed by addition of 600 μL ethyl acetate containing 0.4 mg/mL butylated hydroxytoluene (BHT) to prevent oxidation. The mixture was vortexed for 30 min to extract 2,3-oxidosqualene, then centrifuged at 4000 rpm for 10 min. The supernatant was transferred to a new plate for LC-MS/MS detection. […] Kinetic analysis for HLMs (Sekisui Xenotech, LLC, Kansas City, KS) was performed as for baculosomes, with HLM concentration at 0.5 mg/ml. Kinetic analysis for recombinant SQLE was performed as for baculosomes, with the addition of 1.5 μg/ml recombinant P450R (Sigma-Aldrich).
Samples were dried down under nitrogen and then reconstituted with 70 μL of 0.2 mg/mL BHT in acetonitrile. An aliquot of 7.5 μL was injected into the UPLC-MS/MS system. The instrument setup consisted of an AB Sciex API-6500 Mass Spectrometer (AB Sciex, USA) equipped with a Waters UPLC Acquity (Waters, USA). The UPLC separation was performed on an ACQUITY UPLC BEH C18 (2.1 × 50 mm, 1.7 µm, Waters) at 40 ℃. Formic acid in water (0.1%, v/v, mobile phase A) and a mixture of acetonitrile and isopropanol (80:20, v/v with 0.1% formic acid, mobile phase B) were employed as the mobile phase. An isocratic elution of 98% mobile phase B was used and run time was 1.5 min. The flow rate of mobile phase was set at 0.6 mL/min.

human SQLE = details: cited from earlier work; for IC50: previously reported
SQLE (118–574) = target: T2, SQLE (118–574) (Homo sapiens, UniProt Q14534); assay: Thermal shift assay, N-terminally truncated SQLE (118–574); format: binding; details: 100 μM ligands
T2 construct: to the N-terminally truncated SQLE (118–574), resulting in the selection of this construct for further studies; His6-MBP (TEV site) (N, cleaved yes); made in house; host or cells: Rosetta (DE3) E. coli
T2 sequence (Q14534 118-574): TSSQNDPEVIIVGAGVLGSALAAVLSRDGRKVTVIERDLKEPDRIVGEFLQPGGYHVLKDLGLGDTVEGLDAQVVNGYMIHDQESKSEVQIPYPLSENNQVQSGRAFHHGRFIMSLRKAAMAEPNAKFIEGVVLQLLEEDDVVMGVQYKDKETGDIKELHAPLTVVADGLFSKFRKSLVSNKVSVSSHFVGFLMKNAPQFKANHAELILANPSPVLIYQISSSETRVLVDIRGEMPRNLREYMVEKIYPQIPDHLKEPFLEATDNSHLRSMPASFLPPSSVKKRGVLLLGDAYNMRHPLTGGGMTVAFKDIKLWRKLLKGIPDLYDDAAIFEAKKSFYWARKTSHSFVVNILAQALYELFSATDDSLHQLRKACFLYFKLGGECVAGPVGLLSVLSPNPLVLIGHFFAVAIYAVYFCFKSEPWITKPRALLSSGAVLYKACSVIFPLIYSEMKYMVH
Experimental: (§1) Thermal shift assays were performed in 96-well PCR plates using an RT-PCR instrument (ABI 7500 Fast, Applied Biosystems, USA). Standard assay conditions (20 μL) contain 12.5 μL protein (1 mg/mL) in storage buffer 50 mM Tris (pH 8.0), 500 mM NaCl, 5% glycerol and 100 μM corresponding ligands, 5 μL Protein Thermal Shift^TM buffer, and 2.5 μL of the ROX dye (8 × , Protein Thermal Shift^TM Dye Kit, Applied Biosystems, USA). All experiments were performed in triplicate and reaction mixtures were pre-incubated at 4 °C for 1 h. […] For the detergent screening, the SQLE protein was buffer exchanged to 500 mM NaCl, 50 mM Tris-HCl (pH 8.0) containing different detergents using Superdex^TM 200 Increase 10/300 GL gel-filtration column (GE Healthcare, USA) and assayed as described above.

[2] = target: T3, recombinant N-terminally truncated SQLE (118–574) (Homo sapiens, UniProt Q14534); assay: Enzymatic assay with recombinant SQLE (118–574) plus recombinant P450R; format: biochemical; details: saturating squalene, varied FAD
T3 construct: First, we used the recombinant N-terminally truncated SQLE (118–574); His6-MBP (TEV site) (N, cleaved yes); made in house; host or cells: Rosetta (DE3) E. coli
T3 sequence (Q14534 118-574): as above
Excerpt: The cDNA of human SQLE (NCBI accession number: NM_003129.3) was cloned into pET28a expression vector (Supplementary Table 2). Multiple constructs were designed with six unique N-termini (starting at 1, 101, 111, 118, 124, 144) and four C-termini (ending at 488, 518, 543, 574), along with different affinity/solubilization tags expressed in Rosetta (DE3) E. coli (Shanghai Weidi Biotechnology). Soluble proteins were obtained for four of the expression constructs with N- and C-terminal boundaries corresponding to 101-574, 118-574, 101-488, and 118-488 and were used in crystallization trials. The His6-MBP-TEV-SQLE (118-574) construct in pET28a vector yielded crystals for structure determination. A detergent screen performed using thermal shift assay led to the identification of 3-[(3-cholamidopropyl)dimethylammonio]-1-propanesulfonate (CHAPS) as having the most stabilizing effect. CHAPS detergent was subsequently used for all extraction, purification and crystallization studies of SQLE protein. The plasmid bearing the sequence encoding SQLE was transformed into Rosetta (DE3) E. coli. Cells were grown at 37 °C and induced with 1 mM isopropyl β-D-1-thiogalactopyranoside for about 20 h at 15 °C in Luria Broth media. […] Protein was determined to be > 95% pure by SDS-PAGE and eluted as a monomer as assessed by SEC. […]

SQLE (118-488) = target: T4, SQLE (118-488) (Homo sapiens, UniProt Q14534); assay: Thermal shift assay, SQLE (118-488); format: binding; details: 100 μM ligands
T4 construct: Thermal shift assay fluorescence signals obtained for SQLE (118-488), with and without FAD; made in house; host or cells: Rosetta (DE3) E. coli
T4 sequence (Q14534 118-488): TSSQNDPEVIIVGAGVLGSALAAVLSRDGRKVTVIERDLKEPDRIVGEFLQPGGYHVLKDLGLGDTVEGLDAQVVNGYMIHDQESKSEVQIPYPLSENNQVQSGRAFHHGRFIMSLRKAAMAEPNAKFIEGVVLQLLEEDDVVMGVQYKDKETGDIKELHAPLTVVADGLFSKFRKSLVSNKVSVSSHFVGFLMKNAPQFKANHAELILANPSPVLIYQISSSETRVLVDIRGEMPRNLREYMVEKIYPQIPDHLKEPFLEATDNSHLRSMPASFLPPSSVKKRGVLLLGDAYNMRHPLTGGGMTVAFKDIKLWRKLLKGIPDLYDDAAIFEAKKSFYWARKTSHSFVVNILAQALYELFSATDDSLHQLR
Experimental: as §1

[3] = target: T5, endogenous SQLE in human liver microsomes (Homo sapiens, UniProt Q14534); assay: HLM assay of SQLE activity (human liver microsomes, LC-MS/MS); format: biochemical
T5 construct: human liver microsomes (HLM) which have the advantage of providing endogenous SQLE; tissue Sekisui Xenotech, LLC, Kansas City, KS; host or cells: human liver microsomes
T5 sequence (Q14534 whole entry): as the sequence (Q14534 whole entry) above
Experimental: All biochemistry assay buffers contained 100 mM Tris, 0.1% triton X-100, 1 mM EDTA, 0.1 mM FAD and 1 mM NADPH. […] The reaction was quenched by adding 100 μL of 10 mM ammonium acetate buffer, followed by addition of 600 μL ethyl acetate containing 0.4 mg/mL butylated hydroxytoluene (BHT) to prevent oxidation. The mixture was vortexed for 30 min to extract 2,3-oxidosqualene, then centrifuged at 4000 rpm for 10 min. The supernatant was transferred to a new plate for LC-MS/MS detection. […] Kinetic analysis for HLMs (Sekisui Xenotech, LLC, Kansas City, KS) was performed as for baculosomes, with HLM concentration at 0.5 mg/ml. […] (Sigma-Aldrich). […] An aliquot of 7.5 μL was injected into the UPLC-MS/MS system. The instrument setup consisted of an AB Sciex API-6500 Mass Spectrometer (AB Sciex, USA) equipped with a Waters UPLC Acquity (Waters, USA). […] Formic acid in water (0.1%, v/v, mobile phase A) and a mixture of acetonitrile and isopropanol (80:20, v/v with 0.1% formic acid, mobile phase B) were employed as the mobile phase. An isocratic elution of 98% mobile phase B was used and run time was 1.5 min. The flow rate of mobile phase was set at 0.6 mL/min.

[4] = baculosome-derived SQLE, 1 h pre-incubation, 100 μM squalene, read-out: IC50
[5] = IC50, time-dependent inhibition, before increasing incubation time, compound incubation time varied from 0 to 6 h, starting value, 15 min reaction
[6] = compound incubation time varied from 0 to 6 h

IC50 [1, 4] [nM]	Structure (SMILES)	IC50 [1, 5] [nM]	time dependence of inhibition [1, 6]	mechanism of inhibition with respect to squalene substrate [1]	IC50 (human SQLE) [nM]	further results
> 100000	CCN(CC#CC#CC(C)(C)OC)Cc1cccc(OC[Si](C)(C)c2cccc(C)c2)c1 [Cmpd-4′′.ia]	–	–	–	–	–
–	Cc1cc2nc3c(=O)[nH]c(=O)nc-3n(C[C@H](O)[C@H](O)[C@H](O)COP(=O)(O)OP(=O)(O)OC[C@H]3O[C@@H](n4cnc5c(N)ncnc54)[C@H](O)[C@@H]3O)c2cc1C [FAD, flavin adenosine dinucleotide]	–	–	–	–	Km ([1]; SQLE baculosome, saturating squalene, varied FAD): 8.1 ± 0.6 µM; ΔTm (SQLE (118–574); Supplementary Figure 1c): 2.1 °C; mean Tm (SQLE (118–574); control Tm 48.0): 50.1 °C; Km [2]: 5.2 ± 0.5 µM; ΔTm (SQLE (118-488); Supplementary Figure 1c): 4.7 °C; mean Tm (SQLE (118-488); control Tm 44.0): 48.7 °C; Km ([3]; HLMs, saturating squalene, varied FAD): 9.6 ± 0.5 µM
> 100000	CCN(C/C=C/C#CC(C)(C)C)Cc1cccc(OCc2cc(-c3ccccc3)cs2)c1 [NB-598.ia]	–	–	–	–	–
63	CCN(C/C=C/C#CC(C)(C)C)Cc1cccc(OCc2cc(-c3ccsc3)cs2)c1 [NB-598]	120	time-dependent inhibition	non-competitive inhibition	10 to 60	IC50 ([1]; IC50, time-dependent inhibition, upon increasing incubation time, compound incubation time varied from 0 to 6 h, final value, 15 min reaction): 30 nM; mechanism of action (previous report) (human SQLE): competitive
–	CN(C/C=C/C#CC(C)(C)C)Cc1cccc2ccccc12 [terbinafine]	–	–	–	–	inhibition at 100 µM ([3]; HLM assay, at 100 µM inhibitor concentration, read-out: maximal inhibition): 65%

Structure (SMILES)	IC50 [1, 4] [nM]	IC50 [1, 5] [nM]	time dependence of inhibition [1, 6]	mechanism of inhibition with respect to squalene substrate [1]	IC50 (human SQLE) [nM]	further results
CCN(CC#CC#CC(C)(C)OC)Cc1cccc(OC[Si](C)(C)c2ccccc2C)c1 [Cmpd-4′′]	69	800	time-dependent inhibition	non-competitive inhibition	10 to 60	–
